Consider 21 compounds from patent publication US20240287052A1, “NOVEL OXAZOLE DERIVATIVE AND PHARMACEUTICAL COMPOSITION FOR PREVENTING OR TREATING ALLERGIC DISEASES COMPRISING THE SAME” (AZCURIS CO., LTD., priority 2021, published 2024).

pEC50: −log10 of the molar value. Like-named read-outs stand apart in the source and are kept apart here.

Series [1] deals with Human liver cancer cell line HepG2 cells. The experiment in a line: Cellular viability, WST-8 assay, without or with human liver microsomes. The class given is cell-based. Particulars: for Cellular viability (%) (+) microsome: HepG2, with human liver microsomes; for Cellular viability (%) (−) microsome: HepG2, without human liver microsomes. The protocol:
Human liver cancer cell line HepG2 cells were cultured in a medium (high glucose Dulbecco's Modified Eagle Medium, DMEM, HyClone) supplemented with 10% fetal bovine serum (FBS, HyClone) and 1% antibiotic in a thermostat maintained at 37° C. with 5% CO2.
HepG2 cells, which are adherent cells, were […] or presence of human liver microsomes (Gibco) and NADPH regenerating system.
Cell cultures were exchanged using […] of medium (high glucose Dulbecco's Modified Eagle Medium, DMEM, HyClone) and incubated for 24 hours.
After adding 10 μL of WST-8 (abCam), the absorbance was obtained at 460 nm after 5 seconds of orbital shaking with a microplate reader (Tecan, Spark©) 2 hours later.
The mean of the three values obtained in triplicate was calculated and expressed as % cellular viability compared to vehicle treatment.
On the technique in general: Formazan colour is commonly taken as a measure of viable cells.

In another series the target is T1, IL33 and ST2 binding (Homo sapiens, UniProt O95760).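 Note: plate ELISA with coated Flag-tagged human IL-33 and His-tagged human ST2, bound ST2 detected by anti-His HRP and TMB absorbance at 450 nm, 2 h compound incubation.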
T1 sequence (O95760 112-270 limits assumed): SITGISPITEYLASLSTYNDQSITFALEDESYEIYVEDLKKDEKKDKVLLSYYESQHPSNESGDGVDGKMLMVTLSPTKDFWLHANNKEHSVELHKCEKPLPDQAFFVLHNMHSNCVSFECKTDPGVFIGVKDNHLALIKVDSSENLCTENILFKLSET

For series [2], the system named is IL-6 secretion in the human mast cell line HMC 1.1. The experiment in a line: IL-6 production inhibition assay (IL-33 stimulated HMC 1.1 cells, IL-6 ELISA). The class given is cell-based. Conditions: for inhibition at 1 µM: 1 μM compound, read-out: Inhibition of hIL-6 production (%) 1 μM; for inhibition at 10 µM: 10 μM compound, read-out: Inhibition of hIL-6 production (%) 10 μM. The protocol:
Human mast cell line HMC 1.1 cells were cultured in medium (Iscove's Modified Dulbecco's Medium, IMDM, HyClone) supplemented with […] fetal bovine serum (FBS, HyClone) and 1% antibiotics and maintained at 37° C. with 5% CO2.
HMC 1.1 cells, which are non-adherent cells, were cultured in 0.5 mL of culture medium containing 200 nM of IL-33 wild type human recombinant protein after centrifugation of cells in culture flasks filled to […] capacity and incubated for 24 hours with […], 10 μM, 25 μM, 30 μM or 50 μM of Example compound.
Medium was harvested by centrifugation (2,000×g, 5 min) and stored at −80° C. until ELISA assay.
Experiments were performed according to the protocol using the Human IL-6 ELISA kit (abCam).
The average of the three values obtained in triplicate was calculated and the amount of IL-6 secretion was measured using a standard curve. The measured IL-6 secretion was converted to 100% based on the vehicle treatment sample value to obtain the vehicle %.
(An ELISA detects its analyte on a solid surface through an enzyme-linked reagent.)

By inhibition is commonly meant the drop in the measured response relative to a control, in per cent. As to `CCOC(=O)c1coc(-c2ccc(C(F)(F)F)cc2)n1` [Compound 6, Ethyl 2-(4-(trifluoromethyl)phenyl)oxazole-4-carboxylate], in series [1] (at 45 μM), the “Cellular viability (%) (+) microsome” value was determined as 99 at % and the “Cellular viability (%) (−) microsome” value is 66 at %. Moreover, the inhibition at IL33 and ST2 binding (100 µM) turned out to be 110%.
Take `CCOC(=O)c1nc(-c2ccc(C(F)(F)F)cc2)oc1-c1ccccc1[N+](=O)[O-]` [Compound 32, Ethyl 5-(2-nitrophenyl)-2-(4-(trifluoromethyl)phenyl)oxazole-4-carboxylate]: in series [1] (at 25 μM), the “Cellular viability (%) (+) microsome” value is 95 at % and the “Cellular viability (%) (−) microsome” value was 81 at %. Also, the inhibition on IL33 and ST2 binding (30 µM) was 107%. Besides, the inhibition on IL33 and ST2 binding (100 µM) came out at 108%.
With `CCOC(=O)c1nc(-c2cc(F)cc(F)c2)oc1-c1ccccc1[N+](=O)[O-]` [Compound 74, Ethyl 2-(3,5-difluorophenyl)-5-(2-nitrophenyl)oxazole-4-carboxylate], in series [1] (at 45 μM), the “Cellular viability (%) (+) microsome” value came out at 96 at % and the “Cellular viability (%) (−) microsome” value worked out at 101 at %.
With `CCOC(=O)c1nc(-c2ccc(C(F)(F)F)cc2)oc1-c1ccccc1N` [Compound 99, Ethyl 5-(2-aminophenyl)-2-(4-(trifluoromethyl)phenyl)oxazole-4-carboxylate], in series [1] (at 25 μM), the “Cellular viability (%) (+) microsome” value turned out to be 96 at % and the “Cellular viability (%) (−) microsome” value is recorded as 79 at %.
As to `CN1CCN(CCNC(=O)c2nc(-c3ccc(C(F)(F)F)cc3)oc2-c2ccccc2[N+](=O)[O-])CC1` [Compound 153, N-(2-(4-Methylpiperazin-1-yl)ethyl)-5-(2-nitrophenyl)-2-(4-(trifluoromethyl)phenyl)oxazole-4-carboxamide], in series [1] (at 50 μM), the “Cellular viability (%) (+) microsome” value was 36 at % and the “Cellular viability (%) (−) microsome” value came out at 19 at %. Also, the inhibition on IL33 and ST2 binding (30 µM) came out at 92%. For the same compound, the inhibition on IL33 and ST2 binding (100 µM) was 95%.
For `O=C(NCCCn1ccnc1)c1nc(-c2ccc(C(F)(F)F)cc2)oc1-c1ccccc1[N+](=O)[O-]` [Compound 158, N-(3-(1H-Imidazol-1-yl)propyl)-5-(2-nitrophenyl)-2-(4-(trifluoromethyl)phenyl)oxazole-4-carboxamide], in series [1] (at 50 μM), the “Cellular viability (%) (+) microsome” value came to 17 at % and the “Cellular viability (%) (−) microsome” value worked out at 17 at %. Also, the inhibition on IL33 and ST2 binding (30 µM) was 31%. Moreover, on IL33 and ST2 binding (100 µM), the inhibition was 26%.
For the compound `CSc1ccc(-c2oc(-c3ccc(C(F)(F)F)cc3)nc2C(=O)NCCN2CCN(C(C)=O)CC2)cc1` [Compound 194, N-(2-(4-acetylpiperazin-1-yl)ethyl)-5-(4-(methylthio)phenyl)-2-(4-(trifluoromethyl)phenyl)oxazole-4-carboxamide], in series [2] (24 hours), the inhibition at 1 µM amounted to 44% and the inhibition at 10 µM came to 68%. The inhibition at IL33 and ST2 binding (30 µM) came out at 41%.
The like results for `CC(=O)N1CCN(CCNC(=O)c2nc(-c3ccc(C(F)(F)F)cc3)oc2-c2cccnc2)CC1` [Compound 197, N-(2-(4-acetylpiperazin-1-yl)ethyl)-5-(pyridin-3-yl)-2-(4-(trifluoromethyl)phenyl)oxazole-4-carboxamide] were, in that order, 62%, 70% and 99%.
The like results for `COc1cccc(-c2oc(-c3ccc(C(F)(F)F)cc3)nc2C(=O)NCCN2CCN(C(C)=O)CC2)c1` [Compound 198, N-(2-(4-acetylpiperazin-1-yl)ethyl)-5-(3-methoxyphenyl)-2-(4-(trifluoromethyl)phenyl)oxazole-4-carboxamide] were, in that order, 62%, 77% and 5%.
On to `CN(C)CCNC(=O)c1nc(-c2ccc(OC(F)(F)F)cc2)oc1-c1ccccc1` [Compound 203, N-(2-(Dimethylamino)ethyl)-5-phenyl-2-(4-(trifluoromethoxy)phenyl)oxazole-4-carboxamide], for which, in series [1] (at 50 μM), the “Cellular viability (%) (+) microsome” value worked out at 30 at % and the “Cellular viability (%) (−) microsome” value turned out to be 19 at %. In addition, the inhibition at IL33 and ST2 binding (30 µM) was -9%. Also, the inhibition at IL33 and ST2 binding (100 µM) worked out at 14%.
In the case of `COc1ccc(-c2nc(C(=O)NCCN(C)C)c(-c3ccc([N+](=O)[O-])cc3)o2)cc1` [Compound 217, N-(2-(Dimethylamino)ethyl)-2-(4-methoxyphenyl)-5-(4-nitrophenyl)oxazole-4-carboxamide], in series [1] (at 100 μM), the “Cellular viability (%) (+) microsome” value came out at 34 at %. In addition, in series [1] (at 100 μM), the “Cellular viability (%) (−) microsome” value worked out at 19 at %. Further, the inhibition at IL33 and ST2 binding (30 µM) is -38%; on IL33 and ST2 binding (100 µM), -51%.
Take `CN(C)CCNC(=O)c1nc(-c2ccc(F)c(F)c2)oc1-c1ccccc1` [Compound 231, 2-(3,4-Difluorophenyl)-N-(2-(dimethylamino)ethyl)-5-phenyloxazole-4-carboxamide]: in series [1] (at 50 μM), the “Cellular viability (%) (+) microsome” value is given as 29 at % and the “Cellular viability (%) (−) microsome” value is listed as 17 at %. Further, the inhibition on IL33 and ST2 binding (30 µM) was -8%. At IL33 and ST2 binding (100 µM), the inhibition stood at 5%.
Regarding `CN(C)CCN1CCN(C(=O)c2nc(-c3ccc(Cl)cc3)oc2-c2ccccc2[N+](=O)[O-])CC1` [Compound 248, (2-(4-Chlorophenyl)-5-(2-nitrophenyl)oxazol-4-yl)(4-(2-(dimethylamino)ethyl)piperazin-1-yl)methanone], in series [1] (at 50 μM), the “Cellular viability (%) (+) microsome” value worked out at 31 at % and the “Cellular viability (%) (−) microsome” value worked out at 19 at %. Moreover, the inhibition on IL33 and ST2 binding (30 µM) came to 33%. For the same compound, on IL33 and ST2 binding (100 µM), the inhibition was 63%.
The term pEC50 denotes the EC50 on a negative log10 scale, so that one unit is a factor of ten. As to `CCNC(=O)c1nc(-c2ccc(C(F)(F)F)cc2)oc1-c1cccc(OC)c1` [Compound 298, N-Ethyl-5-(3-methoxyphenyl)-2-(4-(trifluoromethyl)phenyl)oxazole-4-carboxamide], in series [2] (0.1 μM compound, 24 hours, read-out: Inhibition of hIL-6 production (%) 0.1 μM), the inhibition at 0.1 µM is 12%. For the same compound, in series [2] (24 hours), the inhibition at 1 µM amounted to 70% and the inhibition at 10 µM stood at 75%. Besides, the pEC50 in series [2] (read-out: Inhibition of hIL-6 production EC50) is 6.19. Also, the inhibition at IL33 and ST2 binding (30 µM) turned out to be 87%.
As for `CCNC(=O)c1nc(-c2ccc(C(F)(F)F)cc2)oc1-c1ccccc1OC(F)(F)F` [Compound 305, N-Ethyl-5-(2-(trifluoromethoxy)phenyl)-2-(4-(trifluoromethyl)phenyl)oxazole-4-carboxamide], in series [2] (24 hours), the inhibition at 1 µM is -4% and the inhibition at 10 µM worked out at 26%. Further, at IL33 and ST2 binding (30 µM), the inhibition was -17%.
Consider `CCCNC(=O)c1nc(-c2ccc(C(F)(F)F)cc2)oc1-c1ccccc1OC(F)(F)F` [Compound 306, N-Propyl-5-(2-(trifluoromethoxy)phenyl)-2-(4-(trifluoromethyl)phenyl)oxazole-4-carboxamide], for which, in series [2] (24 hours), the inhibition at 1 µM is -38% and the inhibition at 10 µM turned out to be 45%. In addition, the inhibition at IL33 and ST2 binding (30 µM) was 38%.
The like results for `CCNC(=O)c1nc(-c2ccc(C(F)(F)F)cc2)oc1-c1cccc(C#N)c1` [Compound 311, 5-(3-Cyanophenyl)-N-ethyl-2-(4-(Trifluoromethyl)phenyl)oxazole-4-carboxamide] were, in that order, 64%, 80% and -5%.
For `CCNC(=O)c1nc(-c2ccc(OC)cc2)oc1-c1ccccc1` [Compound 312, N-Ethyl-2-(4-methoxyphenyl)-5-phenyloxazole-4-carboxamide], in that order: 66%, 81% and -47%.
`CCNC(=O)c1nc(-c2cc(F)cc(F)c2)oc1-c1ccccc1` [Compound 313, 2-(3,5-Difluorophenyl)-N-ethyl-5-phenyloxazole-4-carboxamide]: in series [2] (24 hours), the inhibition at 1 µM was -7% and the inhibition at 10 µM was 27%. In addition, the inhibition at IL33 and ST2 binding (30 µM) is -29%.
Consider `CCNC(=O)c1nc(-c2cccc(Cl)c2)oc1-c1ccccc1` [Compound 314, 2-(3-Chlorophenyl)-N-ethyl-5-phenyloxazole-4-carboxamide], for which, in series [2] (24 hours), the inhibition at 1 µM stood at 10% and the inhibition at 10 µM was determined as 81%. In addition, on IL33 and ST2 binding (30 µM), the inhibition is -18%.
The like results for `CCNC(=O)c1nc(-c2ccc(C#N)cc2)oc1-c1ccccc1` [Compound 315, 2-(4-cyanophenyl)-N-ethyl-5-phenyloxazole-4-carboxamide] were, in that order, 47%, 61% and -4%.
